Assays:
[1] = test system: 22RV1 prostate cancer cells; assay: Cell viability of prostate cancer 22RV1 cells after 72 hours treatment; type: cell-based; settings: Homo sapiens
[2] = test system: PC3 prostate cancer cells; assay: Cell viability of prostate cancer PC3 cells after 72 hours treatment; type: cell-based; settings: Homo sapiens; for viability at 2.5 µM: PC-3, 2.5 μM; for viability at 5 µM: PC-3, 5 μM; for viability at 10 µM: PC-3, 10 μM; for viability at 20 µM: PC-3, 20 μM
Protocol: Effects of compounds LLS42-LLS80 on the viability of PC3 prostate cancer cells after 72 hours of treatment are shown in Table 2 below: […]

Work on CN(C)CCCOc1ccc(-c2nc3cc(C(CC(N)=O)NCC4CCCCC4)ccc3n2Cc2ccc(Br)cc2)cc1 (stereo not drawn) [LLS95, 3-(1-(4-bromobenzyl)-2-(4-(3-(dimethylamino)propoxy)phenyl)-1H-benzo[d]imidazol-5-yl)-3-((cyclohexylmethyl)amino)propanamide] yielded a viability at 2.5 µM [1] of 22%, a viability at 5 µM [1] of 1% and a viability at 10 µM [1] of 0%.
Work on NC(=O)CC(NCc1ccc(Cl)c(Cl)c1)c1ccc2c(c1)nc(-c1ccc(N(CCO)CCO)cc1)n2Cc1ccc(Br)cc1 (stereo not drawn) [LLS93, 3-(2-(4-(bis(2-hydroxyethyl)amino)phenyl)-1-(4-bromobenzyl)-1H-benzo[d]imidazol-5-yl)-3-((3,4-dichlorobenzyl)amino)propanamide] yielded a viability at 2.5 µM [1] of 22%, a viability at 5 µM [1] of 2% and a viability at 10 µM [1] of 0%.
NC(=O)CC(NCc1ccc(Cl)c(Cl)c1)c1ccc2c(c1)nc(-c1ccc(N(CCO)CCO)cc1)n2Cc1ccc2c(c1)OCO2 (stereo not drawn) [LLS106, 3-(1-(benzo[d][1,3]dioxol-5-ylmethyl)-2-(4-(bis(2-hydroxyethyl)amino)phenyl)-1H-benzo[d]imidazol-5-yl)-3-((3,4-dichlorobenzyl)amino)propanamide] showed a viability at 2.5 µM [1] of 30%, a viability at 5 µM [1] of 2% and a viability at 10 µM [1] of 0%.
CN(C)CCCOc1ccc(-c2nc3cc(C(CC(N)=O)NCC4CCCCC4)ccc3n2Cc2ccc(OC(F)(F)F)cc2)cc1 (stereo not drawn) [LLS89, 3-((cyclohexylmethyl)amino)-3-(2-(4-(3-(dimethylamino)propoxy)phenyl)-1-(4-(trifluoromethoxy)benzyl)-1H-benzo[d]imidazol-5-yl)propanamide] was tested, and the viability at 2.5 µM [1] was 1%, the viability at 5 µM [1] was 0% and the viability at 10 µM [1] was 0%.
CN(C)CCCOc1ccc(-c2nc3cc(C(CC(N)=O)NCc4ccc(Cl)c(Cl)c4)ccc3n2Cc2ccc(Cl)c(Cl)c2)cc1 (stereo not drawn) [LLS85, 3-(1-(3,4-dichlorobenzyl)-2-(4-(3-(dimethylamino)propoxy)phenyl)-1H-benzo[d]imidazol-5-yl)-3-((3,4-dichlorobenzyl)amino)propanamide] gave a viability at 2.5 µM [1] of 65%, a viability at 5 µM [1] of 1% and a viability at 10 µM [1] of 0%.
Molecule CN1CCN(c2ccc(-c3nc4cc(C(CC(N)=O)NCC5CCCCC5)ccc4n3Cc3ccc(Cl)c(C(F)(F)F)c3)cc2)CC1 (stereo not drawn) [LLS99, 3-(1-(4-chloro-3-(trifluoromethyl)benzyl)-2-(4-(4-methylpiperazin-1-yl)phenyl)-1H-benzo[d]imidazol-5-yl)-3-((cyclohexylmethyl)amino)propanamide] has a viability at 2.5 µM [1] of 1%, a viability at 5 µM [1] of 0% and a viability at 10 µM [1] of 0%.
NC(=O)CC(NCC1CCCCC1)c1ccc2c(c1)nc(-c1ccc(N3CCOCC3)cc1)n2Cc1ccc(C(F)(F)F)c(F)c1 (stereo not drawn) [LLS96, 3-((cyclohexylmethyl)amino)-3-(1-(3-fluoro-4-(trifluoromethyl)benzyl)-2-(4-morpholinophenyl)-1H-benzo[d]imidazol-5-yl)propanamide] showed a viability at 2.5 µM [1] of 45%, a viability at 5 µM [1] of 0% and a viability at 10 µM [1] of 0%.
With NC(=O)CC(NCc1ccc(-c2ccncc2)cc1)c1ccc2c(c1)nc(-c1ccc(N(CCO)CCO)cc1)n2CCCn1ccnc1 (stereo not drawn) [LLS58, 3-(1-(3-(1H-imidazol-1-yl)propyl)-2-(4-(bis(2-hydroxyethyl)amino)phenyl)-1H-benzo[d]imidazol-5-yl)-3-((4-(pyridin-4-yl)benzyl)amino)propanamide] the viability at 2.5 µM [2] was 92%, the viability at 5 µM [2] was 84% and the viability at 10 µM [2] was 81%. The viability at 20 µM [2] was 74%.
With CC(=O)OCCN(CCO)c1ccc(-c2nc3cc(C(CC(N)=O)NCc4ccc(-c5ccncc5)cc4)ccc3n2CCCn2ccnc2)cc1 (stereo not drawn) [LLS67, 2-((4-(1-(3-(1H-imidazol-1-yl)propyl)-5-(3-amino-3-oxo-1-((4-(pyridin-4-yl)benzyl)amino)propyl)-1H-benzo[d]imidazol-2-yl)phenyl)(2-hydroxyethyl)amino)ethyl Acetate] the viability at 2.5 µM [2] was 93%, the viability at 5 µM [2] was 94% and the viability at 10 µM [2] was 99%. For the same molecule, the viability at 20 µM [2] was 93%.
COc1cc(CNC(CC(N)=O)c2ccc3c(c2)nc(-c2ccc(N(CCO)CCOC(C)=O)cc2)n3C(C)C)cc(Br)c1OC (stereo not drawn) [LLS43, 2-((4-(5-(3-amino-1-((3-bromo-4,5-dimethoxybenzyl)amino)-3-oxopropyl)-1-isopropyl-1H-benzo[d]imidazol-2-yl)phenyl)(2-hydroxyethyl)amino)ethyl Acetate] was tested, and the viability at 2.5 µM [2] was 105%, the viability at 5 µM [2] was 102% and the viability at 10 µM [2] was 101%. It also gave a viability at 20 µM [2] of 105%.
NC(=O)CC(NCc1cccc2ccccc12)c1ccc2c(c1)nc(-c1ccc(N(CCO)CCO)cc1)n2Cc1ccc(C(F)(F)F)cc1 (stereo not drawn) [LLS73, 3-(2-(4-(bis(2-hydroxyethyl)amino)phenyl)-1-(4-(trifluoromethyl)benzyl)-1H-benzo[d]imidazol-5-yl)-3-((naphthalen-1-ylmethyl)amino)propanamide] was tested, and the viability at 2.5 µM [2] was 94%, the viability at 5 µM [2] was 92% and the viability at 10 µM [2] was 69%. The viability at 20 µM [2] was 8%.
In the case of NC(=O)CC(NCc1cccc2ccccc12)c1ccc2c(c1)nc(-c1ccc(N(CCO)CCO)cc1)n2Cc1ccc(OC(F)(F)F)cc1 (stereo not drawn) [LLS63, 3-(2-(4-(bis(2-hydroxyethyl)amino)phenyl)-1-(4-(trifluoromethoxy)benzyl)-1H-benzo[d]imidazol-5-yl)-3-((naphthalen-1-ylmethyl)amino)propanamide], the viability at 2.5 µM [2] was 80%, the viability at 5 µM [2] was 86% and the viability at 10 µM [2] was 29%. It also gave a viability at 20 µM [2] of 0%.
Work on COc1ccc(CCn2c(-c3ccc(N(CCO)CCO)cc3)nc3cc(C(CC(N)=O)NCC4CCCCC4)ccc32)cc1 (stereo not drawn) [LLS56] yielded a viability at 2.5 µM [2] of 104%, a viability at 5 µM [2] of 105% and a viability at 10 µM [2] of 98%. It also gave a viability at 20 µM [2] of 93%.
Molecule CC(=O)OCCN(CCOC(C)=O)c1ccc(-c2nc3cc(C(CC(N)=O)NCc4ccc(Br)s4)ccc3n2CCN)cc1 (stereo not drawn) [LLS45Ac, ((4-(5-(3-amino-1-(((5-bromothiophen-2-yl)methyl)amino)-3-oxopropyl)-1-(2-aminoethyl)-1H-benzo[d]imidazol-2-yl)phenyl)azanediyl)bis(ethane-2,1-diyl) Diacetate] has a viability at 2.5 µM [2] of 98%, a viability at 5 µM [2] of 98% and a viability at 10 µM [2] of 98%. The viability at 20 µM [2] was 91%.
For CN1CCN(c2ccc(-c3nc4cc(C(CC(N)=O)NCc5ccc(Cl)c(Cl)c5)ccc4n3Cc3ccc(C(F)(F)F)cc3)cc2)CC1 (stereo not drawn) [LLS64, 3-((3,4-dichlorobenzyl)amino)-3-(2-(4-(4-methylpiperazin-1-yl)phenyl)-1-(4-(trifluoromethyl)benzyl)-1H-benzo[d]imidazol-5-yl)propanamide], the viability at 2.5 µM [2] was 94%, the viability at 5 µM [2] was 83% and the viability at 10 µM [2] was 60%. The viability at 20 µM [2] was 3%.
Work on NC(=O)CC(NCC1CCCCC1)c1ccc2c(c1)nc(-c1ccc(N3CCOCC3)cc1)n2Cc1ccc(OC(F)(F)F)cc1 (stereo not drawn) [LLS80, 3-((cyclohexylmethyl)amino)-3-(2-(4-morpholinophenyl)-1-(4-(trifluoromethoxy)benzyl)-1H-benzo[d]imidazol-5-yl)propanamide] yielded a viability at 2.5 µM [2] of 86%, a viability at 5 µM [2] of 25% and a viability at 10 µM [2] of 6%. For the same molecule, the viability at 20 µM [2] was 0%.
Molecule COc1ccc(CCn2c(-c3ccc(N(CCOC(C)=O)CCOC(C)=O)cc3)nc3cc(C(N)CC(N)=O)ccc32)cc1 (stereo not drawn) [LLS76, ((4-(5-(1,3-diamino-3-oxopropyl)-1-(4-methoxyphenethyl)-1H-benzo[d]imidazol-2-yl)phenyl)azanediyl)bis(ethane-2,1-diyl) Diacetate] has a viability at 2.5 µM [2] of 92%, a viability at 5 µM [2] of 86% and a viability at 10 µM [2] of 86%. It also gave a viability at 20 µM [2] of 85%.
Molecule NC(=O)CC(NCc1ccc2[nH]ncc2c1)c1ccc2c(c1)nc(-c1ccc(N(CCO)CCO)cc1)n2Cc1ccc(C(F)(F)F)cc1 (stereo not drawn) [LLS77, 3-(((1H-indazol-5-yl)methyl)amino)-3-(2-(4-(bis(2-hydroxyethyl)amino)phenyl)-1-(4-(trifluoromethyl)benzyl)-1H-benzo[d]imidazol-5-yl)propanamide] has a viability at 2.5 µM [2] of 99%, a viability at 5 µM [2] of 100% and a viability at 10 µM [2] of 101%. For the same molecule, the viability at 20 µM [2] was 103%.
In the case of COc1cc(CNC(CC(N)=O)c2ccc3c(c2)nc(-c2ccc(N(CCOC(C)=O)CCOC(C)=O)cc2)n3C(C)C)cc(Br)c1OC (stereo not drawn) [LLS43Ac, ((4-(5-(3-amino-1-((3-bromo-4,5-dimethoxybenzyl)amino)-3-oxopropyl)-1-isopropyl-1H-benzo[d]imidazol-2-yl)phenyl)azanediyl)bis(ethane-2,1-diyl) Diacetate], the viability at 2.5 µM [2] was 97%, the viability at 5 µM [2] was 102% and the viability at 10 µM [2] was 103%. For the same molecule, the viability at 20 µM [2] was 97%.
NC(=O)CC(NCc1ccc(Cl)c(Cl)c1)c1ccc2c(c1)nc(-c1ccc(N(CCO)CCO)cc1)n2CCCN1CCCCC1 (stereo not drawn) [LLS46, 3-(2-(4-(bis(2-hydroxyethyl)amino)phenyl)-1-(3-(piperidin-1-yl)propyl)-1H-benzo[d]imidazol-5-yl)-3-((3,4-dichlorobenzyl)amino)propanamide] gave a viability at 2.5 µM [2] of 86%, a viability at 5 µM [2] of 97% and a viability at 10 µM [2] of 92%. For the same molecule, the viability at 20 µM [2] was 94%.
In the case of COc1ccc(CCn2c(-c3ccc(N(CCOC(C)=O)CCOC(C)=O)cc3)nc3cc(C(CC(N)=O)NCc4ccc5[nH]ncc5c4)ccc32)cc1 (stereo not drawn) [LLS53Ac, ((4-(5-(1-(((1H-indazol-5-yl)methyl)amino)-3-amino-3-oxopropyl)-1-(4-methoxyphenethyl)-1H-benzo[d]imidazol-2-yl)phenyl)azanediyl)bis(ethane-2,1-diyl) Diacetate], the viability at 2.5 µM [2] was 97%, the viability at 5 µM [2] was 94% and the viability at 10 µM [2] was 99%. For the same molecule, the viability at 20 µM [2] was 101%.
For NC(=O)CC(NCc1ccc(Cl)c(Cl)c1)c1ccc2c(c1)nc(-c1ccc(N3CCOCC3)cc1)n2CCCN1CCCCC1 (stereo not drawn) [LLS65, 3-((3,4-dichlorobenzyl)amino)-3-(2-(4-morpholinophenyl)-1-(3-(piperidin-1-yl)propyl)-1H-benzo[d]imidazol-5-yl)propanamide], the viability at 2.5 µM [2] was 95%, the viability at 5 µM [2] was 94% and the viability at 10 µM [2] was 74%. For the same molecule, the viability at 20 µM [2] was 34%.

Reference: patent US10844052B2, “LLS compounds for treatment of cancer” (THE REGENTS OF THE UNIVERSITY OF CALIFORNIA, priority 2016, dated 2020)
